Patent US11478471B2, “Methods and compositions for treating diabetes, metabolic syndrome and other conditions” (priority 2005, dated 2022)

Assays:
[1] = Toxicokinetics in the 28 day dog study of DIO-902 (with racemic ketoconazole group a); settings: beagle, plasma, po, dogs; for concentration at 1 h / concentration at 2 h / concentration at 4 h / concentration at 8 h / concentration at 12 h / concentration at 0 h: Drug concentration in plasma; for Tmax: Tmax Range; for AUC(0-t): AUC(0-12);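 on all read-outs here: beagle dogs dosed orally once daily within a 28-day GLP study, 3 animals per sex per group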
[2] = test system: CYP7A (cholesterol 7α hydroxylase); experiment: Inhibition of CYP7A, cholesterol 7α-hydroxylase activity (Rotstein et al. 1992); settings: assuming intrahepatic concentration approximately 20% of total plasma concentration
[3] = test system: P450 2B1, 2B2, 1A1, 2C11, 3A; settings: read-out: IC50, progesterone 16α hydroxylase (2B1, 2B2, 1A1, 2C11, 3A); Rotstein et al. 1992; cited from earlier work
[4] = test system: Salmonella typhimurium; experiment: Ames assay; settings: five histidine requiring strains
[5] = target: P450 2C6 (Rattus norvegicus, UniProt P05178); settings: Rotstein et al. 1992; read-out: IC50, progesterone 21 hydroxylase (2C6); cited from earlier work
[6] = female, 20 mg/kg, 20 mg/kg oral, day 1, F
[7] = female, 20 mg/kg, 20 mg/kg oral, day 28, F
[8] = male, 2 mg/kg, 2 mg/kg oral, day 28, M
[9] = male, 2 mg/kg, 2 mg/kg oral, day 1, M
[10] = male, 6.5 mg/kg, 6.5 mg/kg oral, day 28, M
[11] = male, 6.5 mg/kg, 6.5 mg/kg oral, day 1, M
[12] = male, 20 mg/kg, 20 mg/kg oral, day 1, M
[13] = male, 20 mg/kg, 20 mg/kg oral, day 28, M

P450 2C6, sequence (P05178 whole entry): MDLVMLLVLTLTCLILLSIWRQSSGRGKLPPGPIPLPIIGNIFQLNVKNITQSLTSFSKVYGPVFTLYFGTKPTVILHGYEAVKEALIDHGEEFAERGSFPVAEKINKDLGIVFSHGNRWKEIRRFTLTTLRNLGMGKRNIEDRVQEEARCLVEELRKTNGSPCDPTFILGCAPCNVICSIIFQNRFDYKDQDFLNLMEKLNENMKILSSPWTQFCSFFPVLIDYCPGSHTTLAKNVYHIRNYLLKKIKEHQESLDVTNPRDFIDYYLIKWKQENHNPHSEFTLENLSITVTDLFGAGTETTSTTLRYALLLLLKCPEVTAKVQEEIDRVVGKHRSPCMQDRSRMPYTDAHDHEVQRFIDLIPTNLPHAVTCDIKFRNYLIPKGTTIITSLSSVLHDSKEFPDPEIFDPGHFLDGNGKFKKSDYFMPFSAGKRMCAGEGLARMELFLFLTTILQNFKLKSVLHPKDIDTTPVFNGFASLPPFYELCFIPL

With CC(=O)N1CCN(c2ccc(OC[C@@H]3CO[C@@](Cn4ccnc4)(c4ccc(Cl)cc4Cl)O3)cc2)CC1 [DIO-902, 2S,4R cis-1-acetyl-4-[4-[[2-(2,4-dichlorophenyl)-2-(1H-imidazol-1-ylmethyl)-1,3-dioxolan-4-yl]methoxyl]phenyl]piperazine] the concentration at 1 h [1, 6] was under 250 ng/mL, the concentration at 2 h [1, 6] was 650 ng/mL and the concentration at 4 h [1, 6] was 9720 ng/mL. For the same compound, the concentration at 8 h [1, 6] was 9950 ng/mL, the concentration at 12 h [1, 6] was 5440 ng/mL and the concentration at 0 h [1, 7] was 2880 ng/mL. For the same compound, the concentration at 1 h [1, 7] was 1780 ng/mL, the concentration at 2 h [1, 7] was 2430 ng/mL and the concentration at 4 h [1, 7] was 6420 ng/mL. It also gave a concentration at 8 h [1, 7] of 9830 ng/mL, a concentration at 12 h [1, 7] of 6530 ng/mL and a Tmax [1, 6] of 4 to 8 h. The Tmax [1, 7] was 8 to 12 h, the AUC(0-t) ([1]; male, 2 mg/kg, 2 mg/kg oral, day 1, M, n = 1) was 2390 ng·h/mL and the AUC(0-t) [1, 8] was 3260 ng·h/mL. It also gave a Cmax [1, 9] of 510 ng/mL, a Cmax [1, 8] of 680 ng/mL and a concentration at 0 h [1, 9] of under 250 ng/mL. It also gave a concentration at 1 h [1, 9] of 400 ng/mL, a concentration at 2 h [1, 9] of 450 ng/mL and a concentration at 4 h [1, 9] of under 250 ng/mL. For the same compound, the concentration at 8 h [1, 9] was under 250 ng/mL, the concentration at 12 h [1, 9] was under 250 ng/mL and the concentration at 0 h [1, 8] was under 250 ng/mL. For the same compound, the concentration at 1 h [1, 8] was 660 ng/mL, the concentration at 2 h [1, 8] was 540 ng/mL and the concentration at 4 h [1, 8] was 380 ng/mL. For the same compound, the concentration at 8 h [1, 8] was under 250 ng/mL, the concentration at 12 h [1, 8] was under 250 ng/mL and the Tmax [1, 9] was 1 to 2 h. It also gave a Tmax [1, 8] of 1 to 4 h, an AUC(0-t) ([1]; male, 6.5 mg/kg, 6.5 mg/kg oral, day 1, M, n = 2) of 12200 ng·h/mL and an AUC(0-t) [1, 10] of 14600 ng·h/mL. It also gave a Cmax [1, 11] of 2000 ng/mL, a Cmax [1, 10] of 2010 ng/mL and a concentration at 0 h [1, 11] of under 250 ng/mL. The concentration at 1 h [1, 11] was 1190 ng/mL, the concentration at 2 h [1, 11] was 1620 ng/mL and the concentration at 4 h [1, 11] was 1250 ng/mL. It also gave a concentration at 8 h [1, 11] of 410 ng/mL, a concentration at 12 h [1, 11] of 400 ng/mL and a concentration at 0 h [1, 10] of under 250 ng/mL. For the same compound, the concentration at 1 h [1, 10] was 1170 ng/mL, the concentration at 2 h [1, 10] was 1390 ng/mL and the concentration at 4 h [1, 10] was 1540 ng/mL. For the same compound, the concentration at 8 h [1, 10] was 1330 ng/mL, the concentration at 12 h [1, 10] was 880 ng/mL and the Tmax [1, 11] was 1 to 4 h. The Tmax [1, 10] was 1 to 8 h, the AUC(0-t) [1, 12] was 60600 ng·h/mL and the AUC(0-t) [1, 13] was 80000 ng·h/mL. The Cmax [1, 12] was 9380 ng/mL, the Cmax [1, 13] was 9940 ng/mL and the concentration at 0 h [1, 12] was under 250 ng/mL. For the same compound, the concentration at 1 h [1, 12] was 7050 ng/mL, the concentration at 2 h [1, 12] was 8300 ng/mL and the concentration at 4 h [1, 12] was 6150 ng/mL. For the same compound, the concentration at 8 h [1, 12] was 2920 ng/mL, the concentration at 12 h [1, 12] was 6740 ng/mL and the concentration at 0 h [1, 13] was 1190 ng/mL. It also gave a concentration at 1 h [1, 13] of 9130 ng/mL, a concentration at 2 h [1, 13] of 9780 ng/mL and a concentration at 4 h [1, 13] of 8170 ng/mL. It also gave a concentration at 8 h [1, 13] of 5860 ng/mL, a concentration at 12 h [1, 13] of 4250 ng/mL and a Tmax [1, 12] of 1 to 4 h. For the same compound, the Tmax [1, 13] was 2 to 4 h, the “total plasma concentration required to inhibit intrahepatic CYP7A” value [2] was 12 microM and approximately 6.3 microg/mL and the IC50 [3] was 84 µM. The “genotoxicity, Ames assay” value [4] was “negative” and the IC50 [5] was 9 µM.
